Several values for one entry are separate records, joined by “and”; a condition that tells them apart may be missing. Equal entries are not always repeated.
Assays:
[1] = target: GyrB (1–220) (Escherichia coli, UniProt P0AES6); experiment: Isothermal titration calorimetry; assay type: binding, E. coli; conditions: for exothermic / thermodynamic signal in ITC: fragment screening, result in words
[2] = Solubility test for ITC measurement; assay type: physicochemical; conditions: DMSO (40–200 mM) and assay (ITC) buffer
[3] = tested on: E. coli ATCC 25922; experiment: Minimum inhibitory concentration; assay type: cell-based; conditions: without efflux pump inhibitor
[4] = tested on: S. aureus ATCC 29213; experiment: Minimum inhibitory concentration; assay type: cell-based
[5] = HepG2 cytotoxicity; assay type: cell-based; conditions: human, HepG2 (ATCC HB-8065) cells

SMILES: CNc1cccc2ccc(=O)[nH]c12 [Compound 2d, 8-(Methylamino)quinolin-2(1H)-one]
- ITC ΔH ([1]; Table 2 fragments): −6.14 kcal/mol and -6.14^b kcal/mol

SMILES: CCNc1cccc2ccc(=O)[nH]c12 [Compound 2q, 8-(ethylamino) quinolin-2(1H)-one]
- exothermic / thermodynamic signal in ITC [1]: no exothermic effects

SMILES: Nc1cccc2ccc(=O)[nH]c12 [Compound 2u, 8-aminoquinolin-2(1H)-one]
- exothermic / thermodynamic signal in ITC [1]: no exothermic effects

SMILES: CNc1cccc2cc(C(=O)Nc3ccccc3)c(=O)[nH]c12 [Compound 13, 8-(Methylamino)-2-oxo-N-phenyl-1,2-dihydroquinoline-3-carboxamide]
- Solubility for ITC measurement [2]: low solubility

SMILES: CNc1cccc2cc(C(=O)Nc3cccc(C(=O)O)c3)c(=O)[nH]c12 [Compound 13a, 3-{[8-(Methylamino)-2-oxo-1,2-dihydroquinoline-3-carbonyl]amino}benzoic Acid]
- ITC ΔH ([1]; Table 3): -12.9 kcal/mol

SMILES: CNc1cccc2cc(C(=O)NCCc3cccc(C(=O)O)c3)c(=O)[nH]c12 [Compound 13c, 3-(2-{[8-(Methylamino)-2-oxo-1,2-dihydroquinoline-3-carbonyl]amino}ethyl)benzoic Acid]
- MIC E. coli ATCC 25922 [3]: no antibacterial activity
- MIC S. aureus ATCC 29213 [4]: no antibacterial activity
- ITC ΔH ([1]; Table 3): -13.2 kcal/mol

SMILES: CNc1cccc2cc(C(=O)Nc3ccc(C(=O)O)cc3)c(=O)[nH]c12 [Compound 13e, 4-{[8-(Methylamino)-2-oxo-1,2-dihydroquinoline-3-carbonyl]amino}benzoic Acid]
- cytotoxicity at 48 h, 50 µM [5]: 8.4%
- ITC ΔH ([1]; Table 3): -13.7 kcal/mol

SMILES: CNc1cccc2cc(C(=O)NCc3ccc(C(=O)O)cc3)c(=O)[nH]c12 [Compound 13f, 4-({[8-(Methylamino)-2-oxo-1,2-dihydroquinoline-3-carbonyl]amino}methyl)benzoic Acid]
- MIC E. coli ATCC 25922 [3]: no antibacterial activity
- MIC S. aureus ATCC 29213 [4]: no antibacterial activity

Source: article PMC7203957 (ACS Omega, 2020)
